Like-named read-outs stand apart in the source and are kept apart here.
Key:
[1] = target: T1, wild-type EGFR (WT-EGFR) (Homo sapiens, UniProt P00533); assay: TR-FRET fluorescent probe displacement assay; format: binding; conditions: TR-FRET, n > 3
T1 construct: made in house; host or cells: SF9 insect cells (MultiBac)
Procedure: Compounds (dissolved to 100 mM in DMSO) were dispensed into black low volume 384 well assay plates (Corning) over a final concentration range of 100,000, 30,000, 10,000, 3000, 1000, 300, 100, 30, 10, and 3 nM using an Echo 550 (Labcyte). Positive control compound and DMSO as a negative control were dispensed into the first and last well, respectively. Each well was backfilled with DMSO to a final volume of 200 nL, resulting in final assay DMSO concentrations of 1%. […] The data were analyzed using Graphpad Prism/Dotmatics Studies Software. Assays conducted in technical replicate and repeated as a biological duplicate.

[2] = tested on: BaF3 EGFR L858R/T790M cells; assay: Ba/F3 growth inhibition (CellTiter Glo); format: cell-based, Murine; conditions: BaF3, absence of IL-3, 72 h, read-out: LT: L858R/T790M GI50
Procedure: (§1) Growth inhibition in Ba/F3 cell lines were assessed in a 384-well format by CellTiter Glo assay (Promega) using the manufacturer’s recommended protocol. Cells were seeded on the day of compound addition and assessed following 72 h incubation including a vehicle only control. Ba/F3 EGFR-WT cells required supplementation with EGF (100 ng/mL, ThermoFisher, Cat No. PHG0311).

[3] = tested on: BaF3 EGFR del19/T790M cells; assay: Ba/F3 growth inhibition (CellTiter Glo); format: cell-based, Murine; conditions: Mus musculus, BaF3, absence of IL-3, 72 h, read-out: dT: del19/T790M GI50
Procedure: as §1

[4] = tested on: BaF3 EGFR WT cells; assay: Ba/F3 growth inhibition (CellTiter Glo); format: cell-based, Murine; conditions: Mus musculus, 72 h
Procedure: as §1

[5] = tested on: BaF3 EGFR L858R/T790M/C775A cells; assay: Ba/F3 growth inhibition (CellTiter Glo); format: cell-based, Murine; conditions: Mus musculus, BaF3, absence of IL-3, 72 h, read-out: LTC2: L858R/T790M/C775A GI50
Procedure: as §1

T1 sequence (P00533 696-1022 limits assumed): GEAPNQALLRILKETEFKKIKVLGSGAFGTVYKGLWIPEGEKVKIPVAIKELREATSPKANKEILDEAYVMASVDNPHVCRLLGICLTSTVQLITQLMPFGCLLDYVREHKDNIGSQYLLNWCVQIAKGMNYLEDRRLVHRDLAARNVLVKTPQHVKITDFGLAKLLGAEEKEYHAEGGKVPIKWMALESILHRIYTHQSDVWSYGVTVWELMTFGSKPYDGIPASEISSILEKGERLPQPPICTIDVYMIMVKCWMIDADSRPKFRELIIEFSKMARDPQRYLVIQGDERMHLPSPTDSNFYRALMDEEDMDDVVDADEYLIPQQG

SMILES: C#Cc1cc(=O)n(-c2ccccc2)c2nc(Nc3ccc(N(C)CCN(C)C)cc3)ncc12 [Compound 7, 2-((4-((2-(Dimethylamino)ethyl)(methyl)amino)phenyl)amino)-5-ethynyl-8-phenylpyrido[2,3-d]pyrimidin-7(8H)-one]
- IC50 ([1]; read-out: WT-EGFR IC50): 0.2 µM
- IC50 ([1]; read-out: WT-EGFR pIC50 ± std dev (converted)): 0.2 µM
- GI50 [2]: < 0.1 µM
- GI50 ([2]; Mus musculus, Ba/F3 EGFR, 72 h): 0.05 ± 0.0032 µM
- GI50 [3]: 0.049 ± 0.006 µM
- GI50 [4]: 1.1 µM
- GI50 [5]: 1.5 µM

— publication PMC12794186, “Covalent Alkynylpyridopyrimidinones Targeting Cysteine 775 of the Epidermal Growth Factor Receptor Overcome Resistance to Current Therapies” (Journal of Medicinal Chemistry, 2025)
